Assay results: US8377974B2 (Millennium Pharmaceuticals, Inc., priority 2004, dated 2013)

Molecular target: T1, human plasma protein factor Xa (Homo sapiens, UniProt P00742)
T1 construct: measure proteolytic activity of the enzyme (factor Xa); purchased Haematologic Technologies (Essex Junction, Vt.); host or cells: human plasma
Assay: Factor Xa IC50 determination: cleavage of paranitroanilide substrate S-2765 in 96-well plates
Format: biochemical
Details: fXa 1 nM, S-2765 100 μM, Tris buffered saline pH 7.4, room temperature
Method in brief: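 Human plasma factor Xa (1 nM) preincubated 5 min at room temperature with inhibitor (0.01 nM–10 μM final) in Tris-buffered saline pH 7.4 with 5 mM CaCl2, 0.1% BSA, 5% DMSO. S-2765 at 100 μM final; hydrolysis at 405 nm over 2 min. IC50 from 4-parameter fit of initial velocities.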

T1 sequence (P00742 235-488 limits assumed): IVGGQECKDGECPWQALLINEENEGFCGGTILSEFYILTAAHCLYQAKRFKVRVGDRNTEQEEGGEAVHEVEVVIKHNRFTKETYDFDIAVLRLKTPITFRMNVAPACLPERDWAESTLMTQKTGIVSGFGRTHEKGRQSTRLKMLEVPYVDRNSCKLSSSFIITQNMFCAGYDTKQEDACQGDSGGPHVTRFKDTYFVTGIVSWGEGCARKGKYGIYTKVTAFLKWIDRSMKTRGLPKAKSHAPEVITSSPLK
T1 sequence (P00742 41-179 partner limits assumed): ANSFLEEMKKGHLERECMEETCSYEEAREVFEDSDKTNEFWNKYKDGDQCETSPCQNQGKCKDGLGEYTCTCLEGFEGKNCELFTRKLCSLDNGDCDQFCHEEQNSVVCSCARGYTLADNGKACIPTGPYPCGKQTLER

How did the IC50 turn out when `O=C(NCc1cc(-c2ccc(-c3ccc(CN4CCCC4)cc3)cc2)no1)c1ccc(Cl)s1` [Example 214, 5-Chloro-thiophene-2-carboxylic acid [3-(4′-pyrrolidin-1-ylmethyl-biphenyl-4-yl)-isoxazol-5-ylmethyl]-amide] was run?
Its IC50 is at least 500 nM.

`CN(C)C(=N)c1ccc(-n2cnc(CNC(=O)c3ccc(Cl)s3)c2)cc1` [Example 364, N-((1-(4-(N,N-Dimethylcarbamimidoyl)phenyl)-1H-imidazol-4-yl)methyl)-5-chlorothiophene-2-carboxamide] was tested. Which IC50 did it give?
Its IC50 is at most 100 nM.

How did the IC50 turn out when `CN1CCN=C1c1ccc(C2=NOC(CNC(=O)c3ccc(Cl)s3)C2)c(N(C)C)c1` (centres unmarked) [Example 75, 5-Chloro-thiophene-2-carboxylic acid {3-[2-dimethylamino-4-(1-methyl-4,5-dihydro-1H-imidazol-2-yl)-phenyl]-4,5-dihydro-isoxazol-5-ylmethyl}-amide] was run?
The IC50 was 100 to 500 nM.

Which IC50 does the source give for `COc1ccc(=O)n(-c2ccc(-n3cc(CNC(=O)c4ccc(Cl)s4)nn3)cc2)c1` [Example 297, 5-Chloro-N-((1-(4-(5-methoxy-2-oxopyridin-1(2H)-yl)phenyl)-1H-1,2,3-triazol-4-yl)methyl)thiophene-2-carboxamide] here?
The IC50 was at most 100 nM.

For `CCN(C)C(=N)c1ccc(-c2cc(CN(C)C(=O)c3ccc(Cl)s3)on2)cc1` [Example 42, 5-Chloro-thiophene-2-carboxylic acid {3-[4-(N-ethyl-N-methyl-carbamimidoyl)-phenyl]-isoxazol-5-ylmethyl}-methyl-amide], which IC50 is on record?
The IC50 was at least 500 nM.

Which IC50 does the source give for `COc1cc(C(=N)N(C)C)ccc1-c1cc(CNC(=O)c2ccc(Cl)s2)on1` [Example 118, 5-Chloro-thiophene-2-carboxylic acid {3-[4-(N,N-dimethyl-carbamimidoyl)-2-methoxy-phenyl]-isoxazol-5-ylmethyl}-amide] here?
Its IC50 is at most 100 nM.

With `O=C(NCC1CC(c2ccc(-c3ccccc3CN3CCCCC3)cc2)=NO1)c1ccc(Cl)s1` (centres unmarked) [Example 196, 5-Chloro-thiophene-2-carboxylic acid [3-(2′-piperidin-1-ylmethyl-biphenyl-4-yl)-4,5-dihydro-isoxazol-5-ylmethyl]-amide] as the molecule, how does the IC50 read?
The IC50 was at most 100 nM.

Which IC50 does the source give for `N=C(c1ccc(-c2cc(CNC(=O)c3ccc(Cl)s3)on2)cc1)N1CCC1` [Example 26, 5-Chloro-thiophene-2-carboxylic acid {3-[4-(azetidin-1-yl-imino-methyl)-phenyl]-isoxazol-5-ylmethyl}-amide] here?
Its IC50 is at most 100 nM.

For `CCN(C)C(=N)c1ccc(-n2cc(CNC(=O)c3ccc(Cl)s3)nn2)cc1` [Example 314, N-((1-(4-(N-Ethyl-N-methylcarbamimidoyl)phenyl)-1H-1,2,3-triazol-4-yl)methyl)-5-chlorothiophene-2-carboxamide], which IC50 is on record?
The IC50 was at most 100 nM.

With `CN(Cc1cc(-c2ccc(C(=N)N3CCCCC3)cc2)no1)C(=O)c1ccc(Cl)s1` [Example 38, 5-Chloro-thiophene-2-carboxylic acid {3-[4-(imino-piperidin-1-yl-methyl)-phenyl]-isoxazol-5-ylmethyl}-methyl-amide] as the molecule, how does the IC50 read?
Its IC50 is at least 500 nM.

With `CN1CCN=C1c1ccc(-c2nc(CNC(=O)c3ccc(Cl)s3)cs2)cc1` [Example 351, 5-Chloro-N-((2-(4-(1-methyl-4,5-dihydro-1H-imidazol-2-yl)phenyl)thiazol-4-yl)methyl)thiophene-2-carboxamide] as the molecule, how does the IC50 read?
The IC50 was 100 to 500 nM.

Which IC50 does the source give for `O=C(NCC1CC(c2cccc(-c3ccc(CN4CCCC4)cc3)c2)=NO1)c1ccc(Cl)s1` (centres unmarked) [Example 267, 5-Chloro-thiophene-2-carboxylic acid [3-(4′-pyrrolidin-1-ylmethyl-biphenyl-3-yl)-4,5-dihydro-isoxazol-5-ylmethyl]-amide] here?
The IC50 was at least 500 nM.

How did the IC50 turn out when `COc1cc(C(=N)N2CCCC2)ccc1C1=NOC(CNC(=O)c2ccc(Cl)s2)C1` (centres unmarked) [Example 104, 5-Chloro-thiophene-2-carboxylic acid {3-[4-(imino-pyrrolidin-1-yl-methyl)-2-methoxy-phenyl]-4,5-dihydro-isoxazol-5-ylmethyl}-amide] was run?
Its IC50 is at most 100 nM.

Which IC50 does the source give for `Cc1cc(Nc2ccc(C3=NOC(CNC(=O)c4ccc(Cl)s4)C3)cc2)ccn1` (centres unmarked) [Example 228, 5-Chloro-thiophene-2-carboxylic acid {3-[4-(2-methyl-pyridin-4-ylamino)-phenyl]-4,5-dihydro-isoxazol-5-ylmethyl}-amide] here?
The IC50 was at least 500 nM.

For `O=C(NCC1CC(c2ccc(-c3ccccc3CN3CCOCC3)cc2)=NO1)c1ccc(Cl)s1` (centres unmarked) [Example 197, 5-Chloro-thiophene-2-carboxylic acid [3-(2′-morpholin-4-ylmethyl-biphenyl-4-yl)-4,5-dihydro-isoxazol-5-ylmethyl]-amide], which IC50 is on record?
The IC50 was at most 100 nM.

How did the IC50 turn out when `N=C(c1ccc(C2=NOC(CNC(=O)c3ccc(Cl)s3)C2)c(N2CCCC2)c1)N1CCCC1` (centres unmarked) [Example 80, 5-Chloro-thiophene-2-carboxylic acid {3-[4-(imino-pyrrolidin-1-yl-methyl)-2-pyrrolidin-1-yl-phenyl]-4,5-dihydro-isoxazol-5-ylmethyl}-amide] was run?
Its IC50 is 100 to 500 nM.

Which IC50 does the source give for `CN1CCN=C1c1ccc(C2=NOC(CNC(=O)c3ccc(Cl)s3)C2)c(N2CCCC2)c1` (centres unmarked) [Example 79, 5-Chloro-thiophene-2-carboxylic acid {3-[4-(1-methyl-4,5-dihydro-1H-imidazol-2-yl)-2-pyrrolidin-1-yl-phenyl]-4,5-dihydro-isoxazol-5-ylmethyl}-amide] here?
The IC50 was 100 to 500 nM.

With `N=C(c1ccc(-c2cc(CNC(=O)c3ccc(Cl)s3)on2)c(F)c1)N1CCCC1` [Example 71, 5-Chloro-thiophene-2-carboxylic acid {3-[2-fluoro-4-(imino-pyrrolidin-1-yl-methyl)-phenyl]-isoxazol-5-ylmethyl}-amide] as the molecule, how does the IC50 read?
Its IC50 is at most 100 nM.

How did the IC50 turn out when `CCOC(=O)C1CCN(C(=N)c2ccc(C3=NOC(CNC(=O)c4ccc(Cl)s4)C3)cc2)CC1` (centres unmarked) [Example 12, 1-{[4-(5-{[(5-Chloro-thiophene-2-carbonyl)-amino]-methyl}-4,5-dihydro-isoxazol-3-yl)-phenyl]-imino-methyl}-piperidine-4-carboxylic acid ethyl ester] was run?
Its IC50 is 100 to 500 nM.

With `CN1CCN=C1c1ccc(C2=NOC(CNC(=O)c3ccc(Cl)s3)C2)c(N2CCOCC2)c1` (centres unmarked) [Example 83, 5-Chloro-thiophene-2-carboxylic acid {3-[4-(1-methyl-4,5-dihydro-1H-imidazol-2-yl)-2-morpholin-4-yl-phenyl]-4,5-dihydro-isoxazol-5-ylmethyl}-amide] as the molecule, how does the IC50 read?
Its IC50 is 100 to 500 nM.

Which IC50 does the source give for `N=C(c1ccc(-c2noc(CNC(=O)c3ccc(Cl)s3)n2)cc1)N1CCCC1` [Example 336, 5-Chloro-N-((3-(4-(imino(pyrrolidin-1-yl)methyl)phenyl)-1,2,4-oxadiazol-5-yl)methyl)thiophene-2-carboxamide] here?
The IC50 was at most 100 nM.

With `O=C(NCc1cn(-c2ccc(-n3cccc(F)c3=O)cc2)nn1)c1ccc(Cl)s1` [Example 291, 5-Chloro-N-((1-(4-(3-fluoro-2-oxopyridin-1(2H)-yl)phenyl)-1H-1,2,3-triazol-4-yl)methyl)thiophene-2-carboxamide] as the molecule, how does the IC50 read?
The IC50 was at most 100 nM.

Which IC50 does the source give for `COCCN(C)C(=N)c1ccc(-c2nc(CNC(=O)c3ccc(Cl)s3)co2)cc1` [Example 346, N-((2-(4-(N-(2-Methoxyethyl)-N-methylcarbamimidoyl)phenyl)oxazol-4-yl)methyl)-5-chlorothiophene-2-carboxamide] here?
Its IC50 is 100 to 500 nM.

How did the IC50 turn out when `CN(C)C(=N)c1ccc(-n2cc(CNC(=O)c3ccc(Cl)s3)cn2)cc1` [Example 325, N-((1-(4-(N,N-Dimethylcarbamimidoyl)phenyl)-1H-pyrazol-4-yl)methyl)-5-chlorothiophene-2-carboxamide] was run?
Its IC50 is at most 100 nM.

With `O=C(NCC1CC(c2ccc(Br)cc2)=NO1)c1ccc(Cl)s1` (centres unmarked) [Example 1, 5-Chloro-thiophene-2-carboxylic acid [3-(4-bromo-phenyl)-4,5-dihydro-isoxazol-5-ylmethyl]-amide] as the molecule, how does the IC50 read?
Its IC50 is at least 500 nM.

`Cc1cnccc1Nc1ccc(C2=NOC(CNC(=O)c3ccc(Cl)s3)C2)cc1` (centres unmarked) [Example 400, 5-Chloro-N-((3-(4-(3-methylpyridin-4-ylamino)phenyl)-4,5-dihydroisoxazol-5-yl)methyl)thiophene-2-carboxamide] was tested. Which IC50 did it give?
The IC50 was at most 100 nM.

Which IC50 does the source give for `COc1ccc(CN(C)C)c(-c2ccc(-c3cc(CNC(=O)c4ccc(Cl)s4)on3)cc2)c1` [Example 215, 5-Chloro-thiophene-2-carboxylic acid [3-(2′-dimethylaminomethyl-5′-methoxy-biphenyl-4-yl)-isoxazol-5-ylmethyl]-amide] here?
The IC50 was at least 500 nM.

For `CN(C)C(=O)c1ccc(C2=NOC(CNC(=O)c3ccc(Cl)s3)C2)cc1` (centres unmarked) [Example 162, 5-Chloro-thiophene-2-carboxylic acid [3-(4-dimethylcarbamoyl-phenyl)-4,5-dihydro-isoxazol-5-ylmethyl]-amide], which IC50 is on record?
Its IC50 is at most 100 nM.

Which IC50 does the source give for `CN(C)Cc1ccc(Cl)cc1-c1ccc(C2=NOC(CNC(=O)c3ccc(Cl)s3)C2)cc1` (centres unmarked) [Example 204, 5-Chloro-thiophene-2-carboxylic acid [3-(5′-chloro-2′-dimethylaminomethyl-biphenyl-4-yl)-4,5-dihydro-isoxazol-5-ylmethyl]-amide] here?
Its IC50 is at most 100 nM.

How did the IC50 turn out when `CN(C)C(=N)c1ccc(-c2cncc(CNC(=O)c3ccc(Cl)s3)c2)cc1` [Example 369, N-((5-(4-(N,N-Dimethylcarbamimidoyl)phenyl)pyridin-3-yl)methyl)-5-chlorothiophene-2-carboxamide] was run?
The IC50 was at most 100 nM.

Which IC50 does the source give for `COc1cc(C(=N)N2CCCCC2)ccc1-c1cc(CNC(=O)c2ccc(Cl)s2)on1` [Example 121, 5-Chloro-thiophene-2-carboxylic acid {3-[4-(imino-piperidin-1-yl-methyl)-2-methoxy-phenyl]-isoxazol-5-ylmethyl}-amide] here?
The IC50 was at most 100 nM.

With `O=C(NCC1CC(c2ccc(Nc3ccnc(Cl)c3)cc2)=NO1)c1ccc(Cl)s1` (centres unmarked) [Example 229, 5-Chloro-thiophene-2-carboxylic acid {3-[4-(2-chloro-pyridin-4-ylamino)-phenyl]-4,5-dihydro-isoxazol-5-ylmethyl}-amide] as the molecule, how does the IC50 read?
The IC50 was 100 to 500 nM.
